{"source": "patent USRE47475E1", "about": "“Selective agents for pain suppression” (WiSys Technology Foundation, Inc., priority 2002, dated 2019)", "key": {"[1]": {"tested_on": "seizures", "settings": "rats, even orally; cited from earlier work"}, "[2]": {"tested_on": "neuropathic pain", "settings": "Knabl et al., 2008, cited from earlier work; for analgesic effect after repeated administration (tolerance): once per day for nine days"}, "[3]": {"target": "T1, GABAA/α5 (α5β3γ2 GABAA receptor) (Homo sapiens, UniProt P18507+P31644)", "T1 construct": "expressed in transfected cells", "assay": "competitive binding assay with [3H]flunitrazepam", "settings": "Table 3; read-out: Binding Affinity at GABAA/α5", "protocol": "(§1) Membranes were harvested with a Brandel cell harvester followed by three ice-cold washes onto polyethyleneimine-pretreated (0.3%) Whatman GF/C filters. Filters were dried overnight and then soaked in Ecoscint, a liquid scintillation cocktail (National Diagnostics; Atlanta, Ga.). Bound radioactivity was quantified by liquid scintillation counting. Membrane protein concentrations were determined using an assay kit from Bio-Rad (Hercules, Calif.) with bovine serum albumin as the standard.\nas §1, with “The GABAA subunit selectivity of several compounds prepared as described above were determined using competitive binding assays. […] Membranes” for “Membranes”"}, "[4]": {"target": "T2, GABAA/α1 (α1β3γ2 GABAA receptor) (Homo sapiens, UniProt P14867+P18507)", "T2 construct": "expressed in transfected cells", "assay": "competitive binding assay with [3H]flunitrazepam", "settings": "Table 3; read-out: Binding Affinity at GABAA/α1", "protocol": "as §1\nas §1, with “The GABAA subunit selectivity of several compounds prepared as described above were determined using competitive binding assays. […] Membranes” for “Membranes”"}, "[5]": {"target": "T3, GABAA/α6 (α6β3γ2 GABAA receptor) (Homo sapiens, UniProt P18507+Q16445)", "T3 construct": "expressed in transfected cells", "assay": "competitive binding assay with [3H]flunitrazepam", "settings": "Table 3; read-out: Binding Affinity at GABAA/α6", "protocol": "as §1\nas §1, with “The GABAA subunit selectivity of several compounds prepared as described above were determined using competitive binding assays. […] Membranes” for “Membranes”"}, "[6]": {"target": "T4, GABAA/α4 (α4β3γ2 GABAA receptor) (Homo sapiens, UniProt P18507+P48169)", "T4 construct": "expressed in transfected cells", "assay": "competitive binding assay with [3H]flunitrazepam", "settings": "Table 3; read-out: Binding Affinity at GABAA/α4", "protocol": "as §1\nas §1, with “The GABAA subunit selectivity of several compounds prepared as described above were determined using competitive binding assays. […] Membranes” for “Membranes”"}, "[7]": {"target": "T5, GABAA/α2 (α2β3γ2 GABAA receptor) (Homo sapiens, UniProt P18507+P47869)", "T5 construct": "expressed in transfected cells", "assay": "competitive binding assay with [3H]flunitrazepam", "settings": "Table 3; read-out: Binding Affinity at GABAA/α2", "protocol": "as §1\nas §1, with “The GABAA subunit selectivity of several compounds prepared as described above were determined using competitive binding assays. […] Membranes” for “Membranes”"}, "[8]": {"target": "T6, GABAA/α3 (α3β3γ2 GABAA receptor) (Homo sapiens, UniProt P18507+P34903)", "T6 construct": "expressed in transfected cells", "assay": "competitive binding assay with [3H]flunitrazepam", "settings": "Table 3; read-out: Binding Affinity at GABAA/α3", "protocol": "as §1\nas §1, with “The GABAA subunit selectivity of several compounds prepared as described above were determined using competitive binding assays. […] Membranes” for “Membranes”"}, "[9]": {"tested_on": "locomotor activity of mice", "assay": "spontaneous locomotor activity (activity cage)", "format": "in vivo", "settings": "i.p.", "protocol": "Locomotor activity: Spontaneous locomotor activity was tested using a commercially available microprocessor equipped activity cage (actiframe, Gerb Elektronik). Mice were placed in the activity cage 15 min before testing. Locomotor activity was measured for 1 h after intraperitoneal administration of vehicle, gabapentin or HZ166 during the early light phase of the day-night cycle."}, "[10]": {"tested_on": "motor coordination of mice", "assay": "rotarod test (motor impairment)", "format": "in vivo", "settings": "HZ166 16 and 48 mg/kg, gabapentin 10 and 30 mg/kg, i.p., 60 min after treatment", "protocol": "Motor impairment: A possible impairment of motor function was analyzed in the rotarod test. Mice were trained on the rotarod (diameter 3 cm, 2 rpm) for 2 days. Animals capable of remaining on the rotarod in the absence of treatment for at least 2 min were selected for drug testing. On the test day, the latency to fall off the rod was recorded before and 60 minutes after treatment with vehicle, HZ166 or gabapentin."}, "[11]": {"tested_on": "neuropathic pain after CCI of the sciatic nerve", "assay": "chronic constriction injury (CCI) model, mechanical sensitization (von Frey filaments)", "format": "in vivo, mice", "protocol": "In addition, the pro- or antinociceptive effects of the compounds of the present invention are analyzed in the chronic constriction injury (CCI) model. The GABAA receptor subunit selective test compounds of the present invention are analysed in the CCI model in 7-8-week-old C57BL/6 mice. See Bennett, G. J. & Xie, Y. K. A peripheral mononeuropathy in rat that produces disorders of pain sensation like those seen in man. […] Seven to eight week old mice are anesthetized with isofluran. Unilateral constriction injury of the left sciatic nerve just proximal to the trifurcation is performed with three loose ligatures. In sham-operated animals the sciatic nerve is exposed and the connective tissue is freed, but no ligatures are applied. […] Heat hyperalgesia, cold allodynia and mechanical sensitization are assessed 7-9 days after surgery. Mechanical sensitivity is assessed with electronic von Frey filaments (IITC).\nPain studies—Neuropathic pain: HZ166 and gabapentin were analyzed in the chronic constriction injury (CCI) model. Unilateral constriction injury of the left sciatic nerve just proximal to the trifurcation was performed as described previously (Bennett and Xie, 1988). Anesthesia was induced and maintained by 2% isoflurane, combined with oxygen (30%). The sciatic nerve was exposed at the mid-thigh level proximal to the sciatic trifurcation by blunt dissection through the biceps femoris muscle. […] of nerve were freed of adhering tissue and three chromic gut ligatures (4/0) (Ethicon) were loosely put around the nerve with about 1 mm spacing. The ligatures were tied until they elicited a brief twitch in the hindlimb. The surgical wound was closed in layers. Heat hyperalgesia and mechanical sensitization were assessed 7-16 days after surgery.\nPain Studies—Mechanical sensitization: Mechanical sensitivity was assessed with dynamic von Frey filaments (IITC, Woodland Hills, Calif.). 4-5 measurements were made for each time point and animal and averaged. Measurements of paw withdrawal thresholds of the injured paw and of the contralateral paw were made alternately.\nStatistical Analysis: For all different doses and vehicle, baseline paw withdrawal thresholds/latencies on day 7 after nerve ligation or on day 2 after zymosan A injection were subtracted from all later withdrawal thresholds and the area under the curve (AUC) was calculated. Drug effects were expressed as percent maximum possible effect (MPE) calculated from comparisons of paw withdrawal latencies or thresholds obtained prior to surgery or inflammation and before and after drug treatment. […] Unless otherwise indicated, statistical comparisons were made with one-way analysis of variance (ANOVA) followed by Scheffe's post hoc test. P values<0.05 were considered significant."}}, "data": [{"smiles": "C#Cc1ccc2c(c1)C(c1ccccn1)=NCc1c(C(=O)O)ncn1-2", "note": "[HZ-166 acid]", "values": [{"measurement": "anticonvulsant activity of the sole metabolite", "setting": "[1]", "value": "anticonvulsant"}]}, {"smiles": "Cn1ncnc1COc1nn2c(-c3cc(F)ccc3F)nnc2cc1C(C)(C)C", "note": "[L-838,417]", "values": [{"measurement": "antihyperalgesic activity in a rat neuropathic pain model", "setting": "[2]", "value": "good antihyperalgesic activity"}, {"measurement": "analgesic effect after repeated administration (tolerance)", "setting": "[2]", "value": "did not diminish"}]}, {"smiles": "C#Cc1ccc2c(c1)C(c1ccccc1)=NCC(=O)N2C", "note": "[QB-II-066, 1-Methyl-7-acetyleno-5-phenyl-1,3-dihydro-benzo[e]-1,4-diazepin-2-one]", "values": [{"measurement": "Ki", "setting": "[3]", "value": 6.8, "unit": "nM"}, {"measurement": "Ki", "setting": "[4]", "value": 76.3, "unit": "nM"}, {"measurement": "Ki", "setting": "[5]", "value": "> 1000", "unit": "nM"}, {"measurement": "Ki", "setting": "[6]", "value": "> 1000", "unit": "nM"}, {"measurement": "Ki", "setting": "[7]", "value": 42.1, "unit": "nM"}, {"measurement": "Ki", "setting": "[8]", "value": 47.4, "unit": "nM"}]}, {"smiles": "NCC1(CC(=O)O)CCCCC1", "note": "[gabapentin, reference compound]", "values": [{"measurement": "dose at which sedative effects were observed", "setting": "[9]", "value": 30, "unit": "mg/kg"}, {"measurement": "doses with significant reduction in locomotor activity", "setting": "[9]", "value": "≥ 30", "unit": "mg/kg"}, {"measurement": "interfered with rotarod performance", "setting": "[10]", "value": "Neither"}, {"measurement": "reversal of mechanical hypersensitivity", "setting": "[11]; i.p., CCI model", "value": "dose-dependent reversal"}, {"measurement": "maximum antihyperalgesic effect (efficacy) compared with HZ166", "setting": "[11]; reached only with sedative doses", "value": "higher"}]}, {"smiles": "CN1CC[C@]23c4c5ccc(O)c4O[C@H]2[C@@H](O)C=C[C@H]3[C@H]1C5", "note": "[morphine]", "values": [{"measurement": "analgesic effect after repeated administration (tolerance)", "setting": "[2]", "value": "complete tolerance"}]}]}
